# Data taken from US12473250B2, “Molecular design of new antibiotics and antibiotic adjuvants against MCR strains” (priority 2019, dated 2025).
# Entries after “also recorded” stand apart in the source; their conditions may differ.
# Tests used:
# [1] = test system: colistin resistant MCR (+) E. Coli strains; experiment: Synergy study: colistin MIC in the presence of compound; format: cell-based
# In short: (§1)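 CLSI broth microdilution with colistin and LC compound added in equal amounts, 2-fold serial dilution, alone or combined at fixed synergy concentration. MIC taken as lowest concentration with no visible growth after 24 hours of incubation.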
# [2] = test system: colistin resistant MCR (−) E. Coli strains; experiment: as above; format: cell-based
# In short: as §1
# [3] = target: T1, MCR-1 protein (Escherichia coli, UniProt A0A0R6L508); experiment: Fluorescence quenching of MCR-1 protein; format: binding; details: autofluorescence at 323 nm; increasing LC100 concentration
# T1 construct: purchased Bioprocessing technology institute, A*STAR (Singapore, Singapore)
# Procedure: However, EtBr is membrane impermeable, which means that it can only enter the bacterial cell and bind to DNA and emit fluorescence only when both the bacterial outer and inner membranes are perturbed. […] It is also possible that LC100 may have other targets. One possible target is the MCR-1 protein. To understand the interaction of LC100 and the MCR-1 protein, the fluorescence of MCR-1 protein in the presence of different concentration of LC100 was measured. MCR-1 protein contains several tryptophan residues, and autofluoresces at 323 nm.
# [4] = Calcein leakage from large unilamellar vesicles; details: vesicles of 100 nm, DOPE/DOPG=3/1
# From the text: FIG. 20 refers to a graph showing calcein leakage of LC100 and LC101 using large unilamellar vesicles of 100 nm. The lipid composition of the vesicle is DOPE/DOPG=3/1, mimicking the bacterial inner membrane. […] Further increase of LC100 or LC101 leads to decrease in the florescence because of a fluorescence quenching effect.
# [5] = test system: ACBA multi-drug resistant strains; experiment: Synergy of LC100 with colistin against multi-drug resistant strains (Table 5); format: cell-based, Acinetobacter baumannii
# Procedure: (§2) The MICs of the individual drugs and LC compound in combinations were determined using the broth microdilution technique as recommended by the CLSI whereby the two anti-microbial agents were added in an equal amount. (e.g.: 50 μL of Colistin: 50 μL of LC compounds). Diluted media containing compounds and antibiotics will be serially diluted 2-fold, and LC compounds and antibiotics alone or in combination will be assayed at fixed synergy concentration. In all cases, the lowest concentration at which no visible growth occurred was be recorded to be the MIC value of individual and combined antibacterial agents. The results were obtained after 24 hours of incubation.
# [6] = test system: ENT CLOACAE multi-drug resistant strains; experiment: as above; format: cell-based, E. cloacae
# Procedure: as §2
# T1 sequence (A0A0R6L508 whole entry): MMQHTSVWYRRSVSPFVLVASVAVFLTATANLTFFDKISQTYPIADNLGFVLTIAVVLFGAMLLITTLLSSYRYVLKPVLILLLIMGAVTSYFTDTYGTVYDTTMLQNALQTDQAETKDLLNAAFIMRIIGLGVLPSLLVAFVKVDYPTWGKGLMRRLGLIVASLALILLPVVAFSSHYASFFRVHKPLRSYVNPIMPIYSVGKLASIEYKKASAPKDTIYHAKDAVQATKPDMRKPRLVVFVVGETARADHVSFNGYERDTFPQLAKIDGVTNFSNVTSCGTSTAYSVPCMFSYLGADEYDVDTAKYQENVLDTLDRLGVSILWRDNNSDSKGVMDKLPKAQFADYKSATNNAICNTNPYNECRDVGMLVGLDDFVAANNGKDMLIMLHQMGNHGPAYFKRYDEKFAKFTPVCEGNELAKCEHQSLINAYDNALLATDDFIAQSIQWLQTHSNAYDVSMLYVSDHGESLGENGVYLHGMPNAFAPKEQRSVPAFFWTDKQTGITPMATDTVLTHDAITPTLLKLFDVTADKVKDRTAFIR
smiles,measurement,setting,value
CCN(CC)CCCCOc1ccc(/C=C/C(=O)c2ccc(OCCCCN(CC)CC)c(CC=C(C)C)c2O)cc1 [LC100],Colistin MIC in the presence of the compound,"[1]; strain 7023436560, MCR(+), compound at 10 μg (Table 2a: 10 ug/ml), listed as LC 100",<0.0975 µg/mL
same,Colistin MIC in the presence of the compound,"[1]; strain 7023444207, MCR(+), compound at 2 μg",1.56 µg/mL
same,Colistin MIC in the presence of the compound,"[1]; strain 7023444207, MCR(+), compound at 3 μg",0.39 µg/mL
same,Colistin MIC in the presence of the compound,"[1]; strain 7023444207, MCR(+), compound at 5 μg (Table 2a: 5 ug/ml)",0.195 µg/mL
same,Colistin MIC in the presence of the compound,"[1]; strain 7023444207, MCR(+), compound at 10 μg (Table 2a: 10 ug/ml)",<0.098 µg/mL
same,Colistin MIC in the presence of the compound,"[1]; strain 7023444207, MCR(+), compound at 10 μg (Table 2a: 10 ug/ml), listed as LC 100",<0.0975 µg/mL
same,colistin level to which E. coli became sensitive in the presence of LC100,[2]; resistant bacteria without mcr-1,< 0.5 µg/mL
same,Colistin MIC in the presence of the compound,"[2]; strain 6083672926, MCR(−), compound at 2 μg",<0.0975 µg/mL
same,Colistin MIC in the presence of the compound,"[2]; strain 6083672926, MCR(−), compound at 5 μg (Table 2a: 5 ug/ml)",0.195 µg/mL
same,Colistin MIC in the presence of the compound,"[2]; strain 6083672926, MCR(−), compound at 10 μg (Table 2a: 10 ug/ml)",<0.098 µg/mL
same,Colistin MIC in the presence of the compound,"[2]; strain 6083672926, MCR(−), compound at 10 μg (Table 2a: 10 ug/ml), listed as LC 100",<0.0975 µg/mL
same,Colistin MIC in the presence of the compound,"[2]; strain 7023446108, MCR(−), compound at 2 μg",<0.0975 µg/mL
same,Colistin MIC in the presence of the compound,"[2]; strain 7023446108, MCR(−), compound at 5 μg (Table 2a: 5 ug/ml)",0.195 µg/mL
same,Colistin MIC in the presence of the compound,"[2]; strain 7023446108, MCR(−), compound at 10 μg (Table 2a: 10 ug/ml)",<0.098 µg/mL
same,Colistin MIC in the presence of the compound,"[2]; strain 7023446108, MCR(−), compound at 10 μg (Table 2a: 10 ug/ml), listed as LC 100",<0.0975 µg/mL
same,Colistin MIC in the presence of the compound,"[2]; strain 7033607097, MCR(−), compound at 2 μg",<0.0975 µg/mL
same,Colistin MIC in the presence of the compound,"[2]; strain 7033607097, MCR(−), compound at 5 μg (Table 2a: 5 ug/ml)",0.195 µg/mL
same,Colistin MIC in the presence of the compound,"[2]; strain 7033607097, MCR(−), compound at 10 μg (Table 2a: 10 ug/ml)",<0.098 µg/mL
same,Colistin MIC in the presence of the compound,"[2]; strain 7033607097, MCR(−), compound at 10 μg (Table 2a: 10 ug/ml), listed as LC 100",<0.0975 µg/mL
same,fluorescence of MCR-1 protein (quenching),[3],the fluorescence decreases
same,calcein leakage / disruption of vesicles,[4],significant florescence was detected; also recorded: disrupts liposomes
same,Colistin MIC in the presence of LC100,"[5]; strain ACBA 1010, LC 100 2 μg",<0.0975 µg/mL
same,Colistin MIC in the presence of LC100,"[5]; strain ACBA 1010, LC 100 5 μg",<0.0975 µg/mL
same,Colistin MIC in the presence of LC100,"[5]; strain ACBA 1012, LC 100 2 μg",0.39 µg/mL
same,Colistin MIC in the presence of LC100,"[5]; strain ACBA 1012, LC 100 5 μg",<0.0975 µg/mL
same,Colistin MIC in the presence of LC100,"[5]; strain ACBA 43357, LC 100 2 μg",0.39 µg/mL
same,Colistin MIC in the presence of LC100,"[5]; strain ACBA 43357, LC 100 5 μg",<0.0975 µg/mL
same,Colistin MIC in the presence of LC100,"[5]; strain ACBA ATCC 19606, LC 100 2 μg",0.195 µg/mL
same,Colistin MIC in the presence of LC100,"[5]; strain ACBA ATCC 19606, LC 100 5 μg",<0.0975 µg/mL
same,Colistin MIC in the presence of LC100,"[6]; strain ENT CLOACAE 6780, LC 100 2 μg",0.39 µg/mL
same,Colistin MIC in the presence of LC100,"[6]; strain ENT CLOACAE 6780, LC 100 5 μg",<0.0975 µg/mL
same,Colistin MIC in the presence of LC100,"[6]; strain ENT CLOACAE 21489, LC 100 2 μg",0.195 µg/mL
same,Colistin MIC in the presence of LC100,"[6]; strain ENT CLOACAE 21489, LC 100 5 μg",<0.0975 µg/mL
same,Colistin MIC in the presence of LC100,"[6]; strain ENT CLOACAE 30063, LC 100 2 μg",25 µg/mL
same,Colistin MIC in the presence of LC100,"[6]; strain ENT CLOACAE 30063, LC 100 5 μg",6.25 µg/mL
same,Colistin MIC in the presence of LC100,"[6]; strain ENT CLOACAE 44095, LC 100 2 μg",>25 µg/mL
same,Colistin MIC in the presence of LC100,"[6]; strain ENT CLOACAE 44095, LC 100 5 μg",>25 µg/mL
